Reference: the NIST ThermoML archive (doi:10.1021/je7001013)

Columns and labels:
[1] = refractive index (Na D-line) (dimensionless); xn = mol fraction of the nth substance listed; settings: 101 kPa, Liquid
[2] = xn = mol fraction of the nth substance listed; settings: Maximal bubble pressure

C[S+](C)[O-] [dimethyl sulfoxide] + O
Settings	refractive index, [1]	surface tension liquid-gas, [2] [mN/m]
298.15 K, x1 = 0.0121	1.34	71
298.15 K, x1 = 0.0202	1.344	69.7
298.15 K, x1 = 0.1044	–	61.2
298.15 K, x1 = 0.1467	1.396	–
298.15 K, x1 = 0.1979	–	56.7
298.15 K, x1 = 0.2455	1.4215	–
298.15 K, x1 = 0.2507	–	55.4
298.15 K, x1 = 0.2959	1.4305	–
298.15 K, x1 = 0.2999	–	53.3
298.15 K, x1 = 0.3187	–	53.1
298.15 K, x1 = 0.3213	1.4345	–
298.15 K, x1 = 0.3536	–	52.6
298.15 K, x1 = 0.3713	1.4415	–
298.15 K, x1 = 0.3802	–	52
298.15 K, x1 = 0.3967	1.4445	–
298.15 K, x1 = 0.4191	–	51
298.15 K, x1 = 0.4301	1.4475	–
298.15 K, x1 = 0.4523	–	50.3
298.15 K, x1 = 0.501	–	48.3
298.15 K, x1 = 0.59	–	46
298.15 K, x1 = 0.5964	1.461	–
298.15 K, x1 = 0.7027	–	44
298.15 K, x1 = 0.7685	1.47	–
298.15 K, x1 = 0.8088	–	42.6
298.15 K, x1 = 0.8945	–	42
303.15 K, x1 = 0.0121	1.339	70.1
303.15 K, x1 = 0.0202	1.3435	68.7
303.15 K, x1 = 0.1044	–	60.6
303.15 K, x1 = 0.1467	1.4005	–
303.15 K, x1 = 0.1979	–	55.8
303.15 K, x1 = 0.2455	1.42	–
303.15 K, x1 = 0.2507	–	54.5
303.15 K, x1 = 0.2959	1.4295	–
303.15 K, x1 = 0.2999	–	52.4
303.15 K, x1 = 0.3187	–	52.3
303.15 K, x1 = 0.3213	1.4335	–
303.15 K, x1 = 0.3536	–	51.7
303.15 K, x1 = 0.3713	1.4405	–
303.15 K, x1 = 0.3802	–	51.2
303.15 K, x1 = 0.3967	1.443	–
303.15 K, x1 = 0.4191	–	50
303.15 K, x1 = 0.4301	1.4455	–
303.15 K, x1 = 0.4523	–	49.9
303.15 K, x1 = 0.501	–	47.4
303.15 K, x1 = 0.59	–	45.2
303.15 K, x1 = 0.5964	1.459	–
303.15 K, x1 = 0.7027	–	43.4
303.15 K, x1 = 0.7685	1.468	–
303.15 K, x1 = 0.8088	–	42.1
303.15 K, x1 = 0.8945	–	41.4
308.15 K, x1 = 0.0121	1.3395	69.2
308.15 K, x1 = 0.0202	1.343	67.9
308.15 K, x1 = 0.1044	–	59.8
308.15 K, x1 = 0.1467	1.4	–
308.15 K, x1 = 0.1979	–	54.8
308.15 K, x1 = 0.2455	1.419	–
308.15 K, x1 = 0.2507	–	53.2
308.15 K, x1 = 0.2959	1.428	–
308.15 K, x1 = 0.2999	–	51.5
308.15 K, x1 = 0.3187	–	51.4
308.15 K, x1 = 0.3213	1.432	–
308.15 K, x1 = 0.3536	–	50.6
308.15 K, x1 = 0.3713	1.4395	–
308.15 K, x1 = 0.3802	–	50.3
308.15 K, x1 = 0.3967	1.442	–
308.15 K, x1 = 0.4191	–	49.2
308.15 K, x1 = 0.4301	1.4445	–
308.15 K, x1 = 0.4523	–	49.1
308.15 K, x1 = 0.501	–	46.7
308.15 K, x1 = 0.59	–	44.6
308.15 K, x1 = 0.5964	1.458	–
308.15 K, x1 = 0.7027	–	42.6
308.15 K, x1 = 0.7685	1.466	–
308.15 K, x1 = 0.8088	–	41.5
308.15 K, x1 = 0.8945	–	40.9
313.15 K, x1 = 0.0121	–	67.6
313.15 K, x1 = 0.0202	–	66.9
313.15 K, x1 = 0.1044	–	58.7
313.15 K, x1 = 0.1979	–	53.9
313.15 K, x1 = 0.2507	–	52.3
313.15 K, x1 = 0.2999	–	50.6
313.15 K, x1 = 0.3187	–	50.4
313.15 K, x1 = 0.3536	–	50
313.15 K, x1 = 0.3802	–	49.5
313.15 K, x1 = 0.4191	–	48.4
313.15 K, x1 = 0.4523	–	48.2
313.15 K, x1 = 0.501	–	46
313.15 K, x1 = 0.59	–	43.8
313.15 K, x1 = 0.7027	–	42.1
313.15 K, x1 = 0.8088	–	40.9
313.15 K, x1 = 0.8945	–	40.3
318.15 K, x1 = 0.0121	–	66.4
318.15 K, x1 = 0.0202	–	65.8
318.15 K, x1 = 0.1044	–	57.9
318.15 K, x1 = 0.1979	–	53
318.15 K, x1 = 0.2507	–	51.2
318.15 K, x1 = 0.3218	–	50.7
318.15 K, x1 = 0.3506	–	49.7
318.15 K, x1 = 0.3549	–	49.4
318.15 K, x1 = 0.3802	–	48.6
318.15 K, x1 = 0.4191	–	47.5
318.15 K, x1 = 0.4523	–	47.3
318.15 K, x1 = 0.501	–	45.1
318.15 K, x1 = 0.59	–	43.1
318.15 K, x1 = 0.7027	–	41.4
318.15 K, x1 = 0.8088	–	40.4
318.15 K, x1 = 0.8945	–	39.8
323.15 K, x1 = 0.0121	–	65.3
323.15 K, x1 = 0.0202	–	64.8
323.15 K, x1 = 0.1044	–	57
323.15 K, x1 = 0.1979	–	52.2
323.15 K, x1 = 0.2507	–	50.3
323.15 K, x1 = 0.3218	–	49.9
323.15 K, x1 = 0.3506	–	48.7
323.15 K, x1 = 0.3549	–	48.4
323.15 K, x1 = 0.3802	–	47.7
323.15 K, x1 = 0.4191	–	46.7
323.15 K, x1 = 0.4523	–	46.3
323.15 K, x1 = 0.501	–	44.4
323.15 K, x1 = 0.59	–	42.3
323.15 K, x1 = 0.7027	–	40.8
323.15 K, x1 = 0.8088	–	39.8
323.15 K, x1 = 0.8945	–	39.2
328.15 K, x1 = 0.0121	–	65.1
328.15 K, x1 = 0.0202	–	63.8
328.15 K, x1 = 0.1044	–	55.1
328.15 K, x1 = 0.1979	–	51.1
328.15 K, x1 = 0.2507	–	49.4
328.15 K, x1 = 0.3218	–	49
328.15 K, x1 = 0.3506	–	47.7
328.15 K, x1 = 0.3549	–	47.4
328.15 K, x1 = 0.3802	–	46.8
328.15 K, x1 = 0.4191	–	45.9
328.15 K, x1 = 0.4523	–	45.3
328.15 K, x1 = 0.501	–	43.5
328.15 K, x1 = 0.59	–	41.7
328.15 K, x1 = 0.7027	–	40.2
328.15 K, x1 = 0.8088	–	39.2
328.15 K, x1 = 0.8945	–	38.7
